Data published in the supplement of paper PMC8960247.
± gives the standard error.

Assays:
621-102 (TSC2-deficient) [1] = experiment: relative viability vs DMSO; higher = less cytotoxic; details: serum: 10% FBS, 72 h
621-103 (TSC2-rescued) = experiment: as above; details: serum: 10% FBS, 72 h
621-102 (TSC2-deficient) [2] = experiment: relative viability vs DMSO (fraction); higher = less cytotoxic; details: serum: 0.1% FBS, 72 h
UMB1949 (TSC2-deficient) = experiment: as above; details: serum: 0.1% FBS, 72 h;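 further: renal angiomyolipoma cell lines screened in 384-well plates, viability normalized per plate to DMSO-treated cells, each plate carrying 50 nM rapamycin and 1 µM staurosporine controls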

SMILES | relative viability (621-102 (TSC2-deficient) [1]; 0.0001 µM) [%] | relative viability (621-102 (TSC2-deficient) [1]; 0.001 µM) [%] | relative viability (621-102 (TSC2-deficient) [1]; 0.01 µM) [%] | relative viability (621-102 (TSC2-deficient) [1]; 0.1 µM) [%] | relative viability (621-102 (TSC2-deficient) [1]; 1 µM) [%] | relative viability (621-102 (TSC2-deficient) [1]; 10 µM) [%] | relative viability (621-103 (TSC2-rescued); 0.0001 µM) [%] | relative viability (621-103 (TSC2-rescued); 0.001 µM) [%] | relative viability (621-103 (TSC2-rescued); 0.01 µM) [%] | relative viability (621-103 (TSC2-rescued); 0.1 µM) [%] | relative viability (621-103 (TSC2-rescued); 1 µM) [%] | relative viability (621-103 (TSC2-rescued); 10 µM) [%] | relative viability (621-102 (TSC2-deficient) [2]; 0.0128 nM) | relative viability (621-102 (TSC2-deficient) [2]; 0.064 nM) | relative viability (621-102 (TSC2-deficient) [2]; 0.32 nM) | relative viability (621-102 (TSC2-deficient) [2]; 1.6 nM) | relative viability (621-102 (TSC2-deficient) [2]; 8 nM) | relative viability (621-102 (TSC2-deficient) [2]; 40 nM) | relative viability (621-102 (TSC2-deficient) [2]; 200 nM) | relative viability (621-102 (TSC2-deficient) [2]; 1000 nM) | relative viability (621-102 (TSC2-deficient) [2]; 5000 nM) | relative viability (UMB1949 (TSC2-deficient); 0.0128 nM) | relative viability (UMB1949 (TSC2-deficient); 0.064 nM) | relative viability (UMB1949 (TSC2-deficient); 0.32 nM) | relative viability (UMB1949 (TSC2-deficient); 1.6 nM) | relative viability (UMB1949 (TSC2-deficient); 8 nM) | relative viability (UMB1949 (TSC2-deficient); 40 nM) | relative viability (UMB1949 (TSC2-deficient); 200 nM) | relative viability (UMB1949 (TSC2-deficient); 1000 nM) | relative viability (UMB1949 (TSC2-deficient); 5000 nM)
O=C(Cc1ccc(-c2ccc(OCCN3CCOCC3)cc2)cn1)NCc1ccccc1 [KX2-391] | 90.4 ± 1.4 | 98.1 ± 14 | 70 ± 2.2 | 47.7 ± 0.7 | 35.2 ± 2.1 | 37.3 ± 0.46 | 101 ± 3.5 | 96.4 ± 5.7 | 58.7 ± 3.5 | 50.8 ± 1 | 33.05 ± 0.28 | 34.1 ± 1.5 | 1.18 | 0.965 | 1.06 | 0.813 | 0.205 | 0.0932 | 0.069 | 0.0401 | 0.0343 | 1.23 | 1.1 | 1.12 | 1.01 | 0.0594 | 0.00501 | 0.00135 | 0.00316 | 0.00418
CC(C)C[C@H](NC(=O)CNC(=O)c1cc(Cl)ccc1Cl)B1OC(=O)C(CC(=O)O)(CC(=O)O)O1 [MLN9708] | 103 ± 2.1 | 104 ± 2.3 | 107 ± 4.3 | 21.9 ± 4.2 | 3.28 ± 0.3 | 2.38 ± 0.081 | 99.131 ± 0.04 | 98.8 ± 0.59 | 102 ± 2.2 | 4.63 ± 0.36 | 1.63 ± 0.029 | 0.886 ± 0.074 | 1.35 | 1.13 | 1.2 | 1.17 | 1 | 0.392 | 0.0117 | 0.00236 | 0.000667 | 1.05 | 1.02 | 1.01 | 1.02 | 1 | 0.0169 | 0.00139 | 0.00101 | 0.000797
Cc1cc(Nc2cc(CN3CCOCC3)c3nc(C)c(Cc4ccc(Cl)cc4F)n3n2)n[nH]1 | 109 ± 2.8 | 108 ± 1.6 | 97.1 ± 3.9 | 101 ± 1.6 | 95.8 ± 1.3 | 26.9 ± 0.53 | 106.8 ± 0.47 | 96.94 ± 0.68 | 90.05 ± 0.81 | 98.4 ± 5.3 | 87.2 ± 2.1 | 8.52 ± 0.44 | 1.15 | 1.05 | 1.08 | 0.98 | 1.05 | 0.925 | 0.787 | 0.014 | 0.000958 | 1.1 | 1 | 1.03 | 0.938 | 1 | 0.885 | 0.753 | 0.0134 | 0.000916
COC(=O)Nc1nc2cc(Sc3ccccc3)ccc2[nH]1 [Fenbendazole] | – | – | – | – | – | – | – | – | – | – | – | – | 1.37 | 1.35 | 1.68 | 1.39 | 0.898 | 0.314 | 0.0634 | 0.0446 | 0.0203 | 1.05 | 0.807 | 1.02 | 0.969 | 0.983 | 0.605 | 0.00543 | 0.00256 | 0.00375
CO[C@H]1C[C@@H]2CC[C@@H](C)[C@@](O)(O2)C(=O)C(=O)N2CCCC[C@H]2C(=O)O[C@H]([C@H](C)C[C@@H]2CC[C@@H](O)[C@H](OC)C2)CC(=O)[C@H](C)/C=C(\C)[C@@H](O)[C@@H](OC)C(=O)[C@H](C)C[C@H](C)/C=C/C=C/C=C/1C [Rapamycin(Sirolimus)] | – | – | – | – | – | – | – | – | – | – | – | – | 0.506 | 0.495 | 0.584 | 0.441 | 0.385 | 0.388 | 0.254 | 0.277 | 0.222 | 0.874 | 0.825 | 0.847 | 0.773 | 0.818 | 0.841 | 0.593 | 0.466 | 0.364
Cc1cc(Nc2cc(N3CCN(C)CC3)nc(Sc3ccc(NC(=O)C4CC4)cc3)n2)n[nH]1 [VX-680 (MK-0457)] | 101 ± 4.7 | 90.4 ± 2.4 | 98.8 ± 1.7 | 81.4 ± 0.96 | 76 ± 2.1 | 47.8 ± 0.98 | 99.1 ± 1.1 | 103 ± 1.9 | 100 ± 1.9 | 94.8 ± 6.2 | 78.2 ± 2 | 20.4 ± 0.69 | 1.08 | 1 | 0.776 | 0.176 | 0.0382 | 0.0452 | 0.0422 | 0.0108 | 0.00299 | 0.947 | 0.818 | 0.872 | 0.0803 | 0.0315 | 0.0297 | 0.0316 | 0.0244 | 0.0016
Nc1cccc2c1C(=O)N(C1CCC(=O)NC1=O)C2=O (configuration not stated) [Pomalidomide] | 107 ± 1.1 | 112 ± 1.7 | 108 ± 3.3 | 116 ± 1.5 | 118 ± 2.1 | 118 ± 4 | 104.77 ± 0.07 | 102.3 ± 0.72 | 101.3 ± 0.69 | 96.9 ± 1.3 | 98.59 ± 0.92 | 100.7 ± 0.95 | 1.18 | 0.947 | 1.03 | 0.975 | 0.951 | 1.02 | 0.939 | 0.985 | 0.951 | 1.06 | 0.959 | 1.04 | 1.03 | 1.18 | 1.04 | 1.07 | 0.943 | 0.912
Cc1[nH]c2ccccc2c1CCNCc1ccc(/C=C/C(=O)NO)cc1 [Panobinostat (LBH589)] | – | – | – | – | – | – | – | – | – | – | – | – | 1.34 | 0.935 | 1.1 | 0.909 | 0.458 | 0.228 | 0.0101 | 0.00297 | 0.00203 | 1.08 | 1.02 | 0.955 | 0.779 | 0.0132 | 0.00793 | 0.0069 | 0.00422 | 0.00261
CC1=NN(c2ccc(C)c(C)c2)C(=O)/C1=N\Nc1cccc(-c2cccc(C(=O)O)c2)c1O [Eltrombopag] | – | – | – | – | – | – | – | – | – | – | – | – | 1.19 | 0.961 | 0.994 | 0.991 | 0.875 | 0.926 | 1.43 | 0.074 | 0.0453 | 1.08 | 0.963 | 1 | 1.05 | 1.09 | 1.03 | 0.473 | 0.00551 | 0.00668
COCC[n+]1c2c(n(Cc3cnccn3)c1C)C(=O)c1ccccc1C2=O [YM155] | 119 ± 4.4 | 123 ± 2.9 | 85.19 ± 0.73 | 14.7 ± 0.34 | 2.3 ± 0.11 | 1.07 ± 0.06 | 103 ± 1.1 | 97.14 ± 0.26 | 6.98 ± 0.72 | 3.13 ± 0.25 | 1.38 ± 0.11 | 1.32 ± 0.092 | 1.26 | 1.18 | 1.05 | 1.14 | 1.01 | 0.797 | 0.0467 | 0.0022 | 0.000631 | 0.913 | 0.906 | 0.926 | 0.0628 | 0.00285 | 0.00186 | 0.00176 | 0.000862 | 0.000862
